The source of these data is patent US20200055848A1, “FURANONE DERIVATES AND METHODS OF USE THEREOF” (CARNA BIOSCIENCES, INC., priority 2016, published 2020).

The target of the experiment is T1, human Cdc7/human ASK complex protein (Homo sapiens, UniProt O00311).
T1 construct: purchased Carna Biosciences, Inc
Put plainly: Cdc7/ASK enzymatic assay. The class given is biochemical. Particulars: 5 μM ATP; for IC50: mean of duplicated assays, read-out: Cdc7 IC50; for Cdc7 inhibitory potency (in words): compared with compound 3. The protocol: Measurement of Cdc7 kinase activity was carried out using MSA assay kit (QuickScout™ Screening Assist Kit, Carna Biosciences, Inc.). Assay buffer (20 mM HEPES, 0.01% Triton X-100™, 2 mM dithiothreitol, pH 7.5) was used to prepare a substrate mixture solution comprising 4 μM of kinase-reaction substrate (FITC-labeled MCM2 peptide), 40 mM MgCl2, and 4 times concentrations of final targeted ATP (5, 100, and 1,000 μM). The enzyme supplied in the kit (human Cdc7/human ASK complex protein) was diluted into the assay buffer to prepare a 7 nM solution (enzyme solution). The compound stock solution was prepared by diluting a 10 mM DMSO solution into the assay buffer (final 4% DMSO). The kinase reaction was performed by mixing of 5 μL of the compound solution, 5 μL of the substrate mixture solution, and 10 μL of the enzyme solution in a 384-well plate. For the pre-incubation assay, the compound solution and the enzyme solution were pre-mixed and incubated at ambient temperature for 30 min before adding into the substrate mixture solution to start enzymatic reaction. After the reaction at 25° C. for 5 hours, 60 μL of the termination buffer (supplied in the kit) was added to stop the reaction. The phosphorylation of substrate was measured using a LabChip EZ Reader II system (Caliper Life Sciences). The percent inhibition (%) by a tested compound was calculated according to the following formula:
Percent inhibition (%)=(1−(C−A)/(B−A))×100
A represents P/(P+S) for a blank well, B represents P/(P+S) for a solvent well, and C represents P/(P+S) for a compound-added well. S: the peak heights of the separated substrate, P: phosphorylated substrate.
The IC50 value of tested compound was calculated by regression analysis of the percent inhibition values versus the (logarithmic) concentration of the tested compound.

Where a name gives a salt, the structure may show the parent alone. Bounds are passed on as bounds.

T1 sequence (O00311 whole entry): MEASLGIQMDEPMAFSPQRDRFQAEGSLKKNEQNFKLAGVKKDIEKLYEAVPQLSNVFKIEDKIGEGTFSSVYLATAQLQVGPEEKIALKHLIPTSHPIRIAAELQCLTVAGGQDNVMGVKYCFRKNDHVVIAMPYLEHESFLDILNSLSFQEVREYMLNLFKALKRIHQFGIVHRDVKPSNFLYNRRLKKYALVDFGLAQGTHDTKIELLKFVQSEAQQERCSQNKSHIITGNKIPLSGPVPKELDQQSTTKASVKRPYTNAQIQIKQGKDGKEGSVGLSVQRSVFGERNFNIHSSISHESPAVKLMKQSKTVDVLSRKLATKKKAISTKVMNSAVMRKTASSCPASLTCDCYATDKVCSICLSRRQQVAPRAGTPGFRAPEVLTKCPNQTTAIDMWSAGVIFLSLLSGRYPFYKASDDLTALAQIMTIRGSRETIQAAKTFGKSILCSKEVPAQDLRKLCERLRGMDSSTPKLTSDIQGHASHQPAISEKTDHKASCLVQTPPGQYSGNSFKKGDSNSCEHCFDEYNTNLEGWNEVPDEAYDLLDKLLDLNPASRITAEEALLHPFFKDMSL
T1 sequence (Q9UBU7 whole entry partner): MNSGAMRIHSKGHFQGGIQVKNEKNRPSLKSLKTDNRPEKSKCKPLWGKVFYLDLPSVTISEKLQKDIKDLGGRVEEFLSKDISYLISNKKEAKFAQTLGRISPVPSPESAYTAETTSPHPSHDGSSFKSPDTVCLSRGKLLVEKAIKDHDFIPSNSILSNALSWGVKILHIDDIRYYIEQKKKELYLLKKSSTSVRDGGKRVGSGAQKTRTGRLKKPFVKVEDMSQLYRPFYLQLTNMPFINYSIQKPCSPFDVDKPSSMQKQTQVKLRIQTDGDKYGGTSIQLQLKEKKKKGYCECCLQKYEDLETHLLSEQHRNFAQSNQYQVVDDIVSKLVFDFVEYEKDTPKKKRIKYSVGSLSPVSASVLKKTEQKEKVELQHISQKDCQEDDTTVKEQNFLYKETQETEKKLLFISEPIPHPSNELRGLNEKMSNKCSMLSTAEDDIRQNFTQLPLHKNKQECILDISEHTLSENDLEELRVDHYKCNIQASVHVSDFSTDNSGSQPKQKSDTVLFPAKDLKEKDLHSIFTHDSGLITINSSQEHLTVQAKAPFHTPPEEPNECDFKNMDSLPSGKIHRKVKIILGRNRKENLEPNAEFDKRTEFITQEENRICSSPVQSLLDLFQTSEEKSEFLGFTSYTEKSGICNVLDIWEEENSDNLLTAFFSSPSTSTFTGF

On to `CCOC(=O)C1=C(Nc2ccccc2)OC(=Cc2ccc(O)c(C)c2)C1=O` [Compound 6, Ethyl 5-(4-hydroxy-3-methylbenzylidene)-4-oxo-2-(phenylamino)-4,5-dihydrofuran-3-carboxylate], for which the IC50 (usually the concentration that inhibits the measured activity by half) was 1200 nM. With `CCOC(=O)C1=C(Nc2ccc3cn[nH]c3c2)OC(=Cc2c[nH]c3ncccc23)C1=O` [Compound 31, Ethyl 2-((1H-indazol-6-yl)amino)-5-((1H-pyrrolo[2,3-b]pyridin-3-yl)methylene)-4-oxo-4,5-dihydrofuran-3-carboxylate], the IC50 worked out at 4 nM. Turning to `CCOC(=O)C1=C(NCCc2ccccc2)O/C(=C\c2c[nH]c3ncccc23)C1=O` [Compound 33, Ethyl 5-((1H-pyrrolo[2,3-b]pyridin-3-yl)methylene)-4-oxo-2-(phenethylamino)-4,5-dihydrofuran-3-carboxylate hydrochloride], the “Cdc7 inhibitory potency (in words)” value is on record as “some decrease in potency” and the IC50 amounted to 30 nM. On to `O=C(O)C1=C(Nc2ccccc2)O/C(=C\c2c[nH]c3ncccc23)C1=O` [Compound 9, 5-((1H-Pyrrolo[2,3-b]pyridin-3-yl)methylene)-4-oxo-2-(phenylamino)-4,5-dihydrofuran-3-carboxylic acid], for which the IC50 came to 9.9 nM. With `CCNC(=O)C1=C(Nc2ccccc2)O/C(=C\c2c[nH]c3ncccc23)C1=O` [Compound 11, 5-((1H-Pyrrolo[2,3-b]pyridin-3-yl)methylene)-N-ethyl-4-oxo-2-(phenylamino)-4,5-dihydrofuran-3-carboxamide], the “Cdc7 inhibitory potency (in words)” value is “significant decrease in potency”. With `CCOC(=O)C1=C(Nc2cccnc2)OC(=Cc2c[nH]c3ncccc23)C1=O` [Compound 26, Ethyl 5-((1H-pyrrolo[2,3-b]pyridin-3-yl)methylene)-4-oxo-2-(pyridin-3-ylamino)-4,5-dihydrofuran-3-carboxylate], the IC50 was 8 nM. The same measure, in the same setting: then `CCOC(=O)C1=C(Nc2ccncc2)OC(=Cc2c[nH]c3ncccc23)C1=O` [Compound 27, Ethyl 5-((1H-pyrrolo[2,3-b]pyridin-3-yl)methylene)-4-oxo-2-(pyridin-4-ylamino)-4,5-dihydrofuran-3-carboxylate], with 3.5 nM. The same measure, in the same setting: the same measure for `CCOC(=O)C1=C(Nc2ccccc2)OC(=Cc2ccc3c(c2)OCO3)C1=O` [Compound 7, Ethyl 5-(benzo[d][1,3]dioxol-5-ylmethylene)-4-oxo-2-(phenylamino)-4,5-dihydrofuran-3-carboxylate]: 3200 nM. Turning to `NC(=O)C1=C(Nc2ccccc2)O/C(=C\c2c[nH]c3ncccc23)C1=O` [Compound 10, 5-((1H-Pyrrolo[2,3-b]pyridin-3-yl)methylene)-4-oxo-2-(phenylamino)-4,5-dihydrofuran-3-carboxamide], the “Cdc7 inhibitory potency (in words)” value was “significant decrease in potency” and the IC50 is over 10000 nM. `CCOC(=O)C1=C(Nc2cccc(Cl)c2)OC(=Cc2c[nH]c3ncccc23)C1=O` [Compound 14, Ethyl 5-((1H-pyrrolo[2,3-b]pyridin-3-yl)methylene)-2-((3-chlorophenyl)amino)-4-oxo-4,5-dihydrofuran-3-carboxylate]: the IC50 was found to be 12 nM. `CCOC(=O)C1=C(NCc2ccccc2)O/C(=C\c2c[nH]c3ncccc23)C1=O` [Compound 32, Ethyl 5-((1H-pyrrolo[2,3-b]pyridin-3-yl)methylene)-2-(benzylamino)-4-oxo-4,5-dihydrofuran-3-carboxylate hydrochloride]: the “Cdc7 inhibitory potency (in words)” value is reported as “some decrease in potency” and the IC50 stood at 23 nM. For the compound `CCOC(=O)C1=C(Nc2ccccc2OC)OC(=Cc2c[nH]c3ncccc23)C1=O` [Compound 16, Ethyl 5-((1H-pyrrolo[2,3-b]pyridin-3-yl)methylene)-2-((2-methoxyphenyl)amino)-4-oxo-4,5-dihydrofuran-3-carboxylate], the IC50 came out at 12 nM. Regarding `CCOC(=O)C1=C(Nc2cc[nH]n2)O/C(=C\c2c[nH]c3ncccc23)C1=O` [Compound 29, Ethyl 2-((1H-pyrazol-3-yl)amino)-5-((1H-pyrrolo[2,3-b]pyridin-3-yl)methylene)-4-oxo-4,5-dihydrofuran-3-carboxylate], the IC50 stood at 10 nM. Same read-out and setting: the same measure for `CCOC(=O)C1=C(Nc2ccc(Cl)cc2)OC(=Cc2c[nH]c3ncccc23)C1=O` [Compound 15, Ethyl 5-((1H-pyrrolo[2,3-b]pyridin-3-yl)methylene)-2-((4-chlorophenyl)amino)-4-oxo-4,5-dihydrofuran-3-carboxylate]: 6.7 nM. With `CCOC(=O)C1=C(Nc2ccccc2)SC(=Cc2c[nH]c3ncccc23)C1=O` [Compound 4, Ethyl 5-((1H-pyrrolo[2,3-b]pyridin-3-yl)methylene)-4-oxo-2-(phenylamino)-4,5-dihydrothiophene-3-carboxylate], the “Cdc7 inhibitory potency (in words)” value is listed as “retention of some potency” and the IC50 was over 10000 nM. Consider `CCOC(=O)C1=C(Nc2cccc(OC)c2)OC(=Cc2c[nH]c3ncccc23)C1=O` [Compound 17, Ethyl 5-((1H-pyrrolo[2,3-b]pyridin-3-yl)methylene)-2-((3-methoxyphenyl)amino)-4-oxo-4,5-dihydrofuran-3-carboxylate], for which the IC50 was 29 nM. In the case of `CCOC(=O)C1=C(Nc2ccccc2)OC(=Cc2c[nH]c3ncc(Cl)cc23)C1=O` [Compound 5, Ethyl 5-((5-chloro-1H-pyrrolo[2,3-b]pyridin-3-yl)methylene)-4-oxo-2-(phenylamino)-4,5-dihydrofuran-3-carboxylate], the IC50 was 44 nM. On the same count and under the same terms, the same measure for `CCOC(=O)C1=C(Nc2ccccn2)OC(=Cc2c[nH]c3ncccc23)C1=O` [Compound 25, Ethyl 5-((1H-pyrrolo[2,3-b]pyridin-3-yl)methylene)-4-oxo-2-(pyridin-2-ylamino)-4,5-dihydrofuran-3-carboxylate]: 30 nM; for `CCOC(=O)C1=C(Nc2ccc3ncccc3c2)O/C(=C\c2c[nH]c3ncccc23)C1=O` [Compound 30, Ethyl 5-((1H-pyrrolo[2,3-b]pyridin-3-yl)methylene)-4-oxo-2-(quinolin-6-ylamino)-4,5-dihydrofuran-3-carboxylate]: 36 nM; for `CCOC(=O)C1=C(Nc2cncnc2)O/C(=C\c2c[nH]c3ncccc23)C1=O` [Compound 28, Ethyl 5-((1H-pyrrolo[2,3-b]pyridin-3-yl)methylene)-4-oxo-2-(pyrimidin-5-ylamino)-4,5-dihydrofuran-3-carboxylate]: 18 nM. The same measure, in the same setting: the same measure for `CCOC(=O)C1=C(Nc2ccc(C)cc2)OC(=Cc2c[nH]c3ncccc23)C1=O` [Compound 22, Ethyl 5-((1H-pyrrolo[2,3-b]pyridin-3-yl)methylene)-4-oxo-2-(p-tolylamino)-4,5-dihydrofuran-3-carboxylate]: 5.9 nM.
